Structures can show the parent of a compound that is named as a salt.
Experiment: Powder fluidity test (angle of repose)
Format: physicochemical
Settings: for powder flowability (in words): Form III compared to existing Pimavanserin tartrate Form A, B and C; for angle of repose: powder through two funnels onto 7 cm diameter petri dish, α=arc tg(H/R), average of three measurements, ≤30 degrees good, >40 degrees very poor flowability, tartrate
Protocol: Powder fluidity test: the tray is a 7 cm diameter petri dish. The two glass funnels are overlapped on the iron frame. The distance between the lower funnel outlet and the Petri dish is 3.5-6.0 cm. Pimavanserin tartrate salt was added slowly from the upper funnel, and the sample was gradually accumulated on the petri dish through the buffer of the two funnels to form a cone until the highest cone was obtained. Determine the height H of the cone, measure each sample three times, take the average value, and calculate the angle of repose according to the following formula: α=arc tg(H/R) where α is the angle of repose and R is the radius of the dish
When the angle of repose of the powder is less than or equal to 30 degrees, it means the flowability of this powder is good. While in case, 40 degrees or less of the powder angle of repose, this powder can satisfy the demand for fluidity in the production process. When the angle of repose of the powder is more than 40 degrees, it means the very poor flowability of the drug powder which may cause the troubles above mentioned during the drug manufacturing process.

Structure (SMILES) | powder flowability (in words) | angle of repose [°]
CC(C)COc1ccc(CNC(=O)N(Cc2ccc(F)cc2)C2CCN(C)CC2)cc1 [Form A, N-(4-fluorobenzyl)-N-(1-methylpiperidin-4-yl)-N′-[4-(2-methylpropoxy)phenylmethyl]urea tartrate] | poor | 45
CC(C)COc1ccc(CNC(=O)N(Cc2ccc(F)cc2)C2CCN(C)CC2)cc1 [Form B, N-(4-fluorobenzyl)-N-(1-methylpiperidin-4-yl)-N′-[4-(2-methylpropoxy)phenylmethyl]urea tartrate] | poor | 43
CC(C)COc1ccc(CNC(=O)N(Cc2ccc(F)cc2)C2CCN(C)CC2)cc1 [Form C, N-(4-fluorobenzyl)-N-(1-methylpiperidin-4-yl)-N′-[4-(2-methylpropoxy)phenylmethyl]urea tartrate] | poor | 41
CC(C)COc1ccc(CNC(=O)N(Cc2ccc(F)cc2)C2CCN(C)CC2)cc1 [Form III, N-(4-fluorobenzyl)-N-(1-methylpiperidin-4-yl)-N′-[4-(2-methylpropoxy)phenylmethyl]urea tartrate] | significantly improves the powder flowability | 32
